Data on seven compounds can be found in patent publication US20110244503A1, “System and Method for Anti-Cancer Drug Candidate Evaluation” (priority 2010, published 2011).

In assay [1] the test system is ovarian cancer cell line, CAOV-3. The experiment in a line: MiCK-type spectrophotometric apoptosis assay, CAOV-3 cells. In kind it is cell-based. The following applies: as Example 1 but with higher drug concentrations, above 3 kinetic units = positive response. On the procedure: Cancer cells were obtained from exponentially growing cultures in RPMI 1640 medium without phenol red supplemented with 10% heat-inactivated fetal bovine serum, 100 U/ml penicillin and 100 μg/mL streptomycin (complete medium) in humidified air with 5% CO2 at 37° C. Cells were harvested, washed with pre-warmed medium and resuspended in complete medium. Appropriate cell counts and viability were tested.
Cells from each cell line in complete medium were placed in wells of a 96-well plate at a concentration of 2 to 5×10^5 cells/ml. Various dilutions of the drug candidate, Idarubicin, were added to the wells in 5 μL aliquots. Final concentrations for the drug candidate were 0.01, 0.1, 0.5, 1, 5, 10 and 20 μM. The plates were incubated at 37° C. for 30 minutes in a humidified 5% CO2 atmosphere. After this adjustment period, 30 μl of sterile mineral oil was layered on top of each well. The microtiter plate was placed in an incubated spectrophotometer chamber (37° C.) and OD at 600 nm was measured every 5 minutes for a period of 48 hours. The reader was calibrated to zero absorbance using well containing only complete medium and no cells. All tests were performed in triplicate.
Data acquisition and computation was performed using appropriate software. OD readings were plotted against time to provide a kinetic representation of cell responses to the drugs and drug candidate. Kinetic units were calculated for each test well. A kinetic unit below […] was considered a negative response and above 3 was considered a positive response. A kinetic unit between 1.5 and 3 was considered a marginal response.
A variety of anti-cancer drugs were tested against a single ovarian cancer cell line, CAOV-3, to determine their suitability for use against ovarian cancer. Tests were performed in a manner similar to those in Example 1, but with higher drug concentrations.

Assay [2] relates to MOLT-3, an acute T-cell lymphoblastic leukemia. Nature of the assay: MiCK-type spectrophotometric apoptosis assay, MOLT-3 cells. In kind it is cell-based, human. The following applies: 0.01-20 μM. The procedure: (§1) Spectrophotometric data may be converted to kinetic units. Kinetic units are determined by the slope of the curve created when the change in the OD at 600 nm caused by cell blebbing is plotted as a function of time. Specific information regarding the calculation of kinetic units is provided in Kravtsov, Vladimir D. et al., Use of the Microculture Kinetic Assay of Apoptosis to Determine Chemosensitivities of Leukemias, Blood 92:968-980 (1998), incorporated by reference herein. Optical density for a given drug candidate at a given concentration may be plotted against time. This plot gives a distinctive increasing curve if the cells are undergoing apoptosis. […] (FIG. 3.) Cell death due to reasons other than apoptosis can also be determined by the current assay and is useful in eliminating false positives from drug candidate screening. […]
(§2) Vmax is the maximum kinetic rate, which is the slope of the steep increase in the OD v. time plot when cells are undergoing apoptosis. […] ODcell is the initial OD of the control containing cells and ODblank is the initial OD of a blank well containing only medium or medium and drug (the drug may be omitted for some drugs, but for colored drugs in particular it may be included in the blank). y is a coefficient dependent on the cell type being assayed and may be determined experimentally through observation of the cell lines. […]

Assay [3] relates to HL60, an acute promyelocytic leukemia cell line. The experiment in a line: MiCK-type spectrophotometric apoptosis assay, HL60 cells. In kind it is cell-based, human. The settings on record: HL-60 cells. On the procedure: as §1, §2
Assay [4] concerns RAMOS, a B cell line derived from Burkitt's lymphoma. Nature of the assay: MiCK-type spectrophotometric apoptosis assay, RAMOS cells. In kind it is cell-based, human. The settings on record: 0.01-20 μM. On the procedure:
as §1, §2

Assay [5] relates to JURL-MK2, a chronic myeloid leukemia in blast crisis. The experiment in a line: MiCK-type spectrophotometric apoptosis assay, JURL-MK2 cells. In kind it is cell-based, human. The settings on record: 0.01-20 μM, OD at 600 nm every 5 minutes for 48 hours, above 3 = positive response. On the procedure: as §1, §2

With `COc1cccc2c1C(=O)c1c(O)c3c(c(O)c1C2=O)C[C@@](O)(C(C)=O)C[C@@H]3O[C@H]1C[C@H](N)[C@H](O)[C@H](C)O1` [Daunorubicin], in assay [1], the “response / suitability (in words)” value was “positive response at reasonable concentrations”.

For `CC(=O)[C@]1(O)Cc2c(O)c3c(c(O)c2[C@@H](O[C@H]2C[C@H](N)[C@H](O)[C@H](C)O2)C1)C(=O)c1ccccc1C3=O` [Idarubicin, 4-demethoxydaunorubicin], in assay [2], the “concentration dependence of kinetic unit readings (in words)” value is listed as “higher kinetic unit readings at lower concentrations”. Also, the apoptotic response entry in assay [2] (OD at 600 nm every 5 minutes for 48 hours, above 3 = positive response) is listed as “exceeding 3 kinetic units”; in assay [4] (RAMOS cells, OD at 600 nm every 5 minutes for 48 hours, above 3 = positive response) it was “exceeding 3 kinetic units”; in assay [5], “exceeding 3 kinetic units”. This compound registered a maximal response in assay [3] (0.01-20 μM, 48 hours, between 1.5 and 3 = marginal response) of 2.3 kinetic units. For the same compound, the “drug sensitivity (in words)” value in assay [3] (threshold 3 kinetic units) is reported as “only marginal sensitivity”. For the same compound, in assay [1], the “response / suitability (in words)” value is recorded as “positive response at reasonable concentrations”. Moreover, the “concentration dependence of response (in words)” value in assay [4] (Ramos cells) is recorded as “positive response was seen in the Ramos cell line only at high concentrations”.

As for `CCc1c2c(nc3ccc(OC(=O)N4CCC(N5CCCCC5)CC4)cc13)-c1cc3c(c(=O)n1C2)COC(=O)[C@]3(O)CC` [Irinotecan], the “response / suitability (in words)” value in assay [1] is listed as “need to use high concentrations of the drug to achieve a positive response”.

As to `CO[C@@]12[C@H](COC(N)=O)C3=C(C(=O)C(C)=C(N)C3=O)N1C[C@@H]1N[C@@H]12` [Mitomycin], the “response / suitability (in words)” value in assay [1] was “positive response at reasonable concentrations”.

In the case of `O=C1c2c(O)ccc(O)c2C(=O)c2c(NCCNCCO)ccc(NCCNCCO)c21` [Mitoxantrone], the “response / suitability (in words)” value in assay [1] is recorded as “positive response at reasonable concentrations”.

For `O=C1[O][Pt]2([NH][C@@H]3CCCC[C@H]3[NH]2)[O]C1=O` [Oxaliplatin], the “response / suitability (in words)” value in assay [1] is on record as “not suitable drugs for treating ovarian cancer”.

With `CCC1=C[C@@H]2CN(C1)Cc1c([nH]c3ccccc13)[C@@](C(=O)OC)(c1cc3c(cc1OC)N(C)[C@H]1[C@@](O)(C(=O)OC)[C@H](OC(C)=O)[C@]4(CC)C=CCN5CC[C@]31[C@@H]54)C2` [Vinorelbine], the “response / suitability (in words)” value in assay [1] was “not suitable drugs for treating ovarian cancer”.
